# Results published in patent US20060058312A1, “Stabilized aqueous preparation for injection” (priority 2004, published 2006).
# Like-named read-outs stand apart in the source and are kept apart here.
# Columns and labels:
# [1] = format: physicochemical; conditions: buffer, 13 mg/mL, pH 6.2
# Method: (§1) For the aqueous preparations obtained in (1) to (3) above, tests evaluating stability at 60° C./3 weeks were performed. The calcium levofolinate content remaining in the aqueous solution was measured using high performance liquid chromatography under the following conditions (the same were employed in the following experiments) 2 ml each of the test preparations were weighed, and 10 ml of the internal standard solution described below (the same was employed in the following experiments) were added thereto. Subsequently, water was added to adjust the total volume of the solution to 50 ml, thereby to prepare a test solution. Meanwhile, 62.5 mg of calcium levofolinate were dissolved in water so as to prepare a 25 ml solution. Then, to 10 ml of the resultant solution were added 10 ml of the internal standard solution, and the total volume of the solution was adjusted to 50 ml by adding water, thereby to prepare a standard solution. For 20 μl of the standard solution and the test solution, the content of calcium levofolinate was measured by the liquid chromatography method under the following conditions.
# (§2) 1) Measurement Conditions • Detector: Ultraviolet absorptiometer (Measurement wavelength: 254 nm) • Column: A stainless tube having an internal diameter of 4.0 mm and a length of 15 cm was filled with 5 μm of octadecylsilylated silica gel for liquid chromatography. • Column temperature: A constant temperature near 45° C. • Mobile phase: The pH value of a mixed test solution containing 0.008 mol/L of disodium hydrogen phosphate solution/methanol/40% aqueous tetrabutylammonium hydroxide solution (385:110:1.3 (volume ratio)) was adjusted to 7.5 by adding phosphoric acid. • Flow rate: The flow rate was regulated so that the retention time of calcium levofolinate became about 10 minutes. • Internal standard solution: A solution prepared by adding water to 0.04 g of methyl parahydroxybenzoate so that the whole amount of solution is 100 ml.
# About 1100 ml of water for injection were added to a beaker. Then, 8.04 g of sodium chloride, 3.6 g of tromethamine, 3.6 g of ascorbic acid, and 1.2 g of sodium pyrosulfite were added thereto with bubbling of nitrogen gas, and the components were dissolved with stirring. To the resultant solution were added 15.62 g of calcium levofolinate, which were dissolved with stirring. Thereafter, the pH value of the solution was adjusted to 6.2 by adding 5% hydrochloric acid solution dropwise. Water for injection was further added to the solution to adjust the total volume to 1200 ml. Subsequently, the bubbling of nitrogen gas was stopped, and the solution was filtered with a filtration filter, thereby to yield a solution for injection. A 5 ml-syringe made of polypropylene, the inside space of which had been substituted by nitrogen gas, was filled with 5 ml of the resultant solution for injection, followed by steam sterilization under high pressure at 105° C. for 30 minutes. The thus-sterilized syringe was packaged together with a deoxidant, AGELESS ZP-50 (trade name, Mitsubishi Gas Chemical Company, Inc. Japan) by using a plastic film with high air impermeability.
# For an aqueous preparation as obtained above, a stability test (60° C./75% RH, and 40° C./75% RH) was performed by measuring the content of calcium levofolinate remaining after storage for a certain period by the high performance liquid chromatography method.
# [2] = Stability test at 60° C., effect of pH value without ascorbic acid (Example 3), HPLC content; format: physicochemical; conditions: no addition of ascorbic acid; for remaining calcium levofolinate content compared with the initial value (100): 60° C.
# Method: as §1, §2
# About 80 ml of water for injection were added to a beaker (volume: 200 ml). Then, 0.56 g of sodium chloride and 0.3 g of tromethamine were added to it with bubbling of nitrogen gas, and the components were dissolved with stirring and heating to 45 to 50° C. Subsequently, 1.375 g of calcium levofolinate (1.1 g, in terms of 5-formyl-(6S)-tetrahydrofolic acid) were added, and the components were dissolved with stirring. Thereafter, the pH value of the solution was adjusted to 6.0 by adding 5% hydrochloric acid solution dropwise. A similar procedure to the above was performed to produce solutions, each having a regulated pH value of 7.0, 7.5, 7.9, 8.1, 8.3, 8.7, 9.0, 9.2, and 9.5 (1% aqueous sodium hydroxide solution was used in place of 5% hydrochloric acid solution).
# Water for injection was further added to each solution to adjust the total volume of the solution to 100 ml. Subsequently, the bubbling of nitrogen gas was stopped, and each solution was filtered with a filtration filter, thereby to yield a solution for injection. Subsequently, each of nine 5 ml-glass ampules the inside space of which had been substituted by nitrogen gas was filled with 5 ml of the resultant solution for injection, and was sealed by heating.
# For each aqueous preparation obtained as above, a test evaluating stability at 60° C. was performed by measuring the remaining levofolinate content by the high performance liquid chromatography method. […] In the cases of pH 6 to 7 and pH 8.7 to pH 9, an extremely excellent stabilizing effect was confirmed.
# [3] = Transmittance and coloring of the aqueous solution during storage; format: physicochemical; conditions: aqueous solution
# Text: The suppressing effect can be attained by the action of ascorbic acid which has been stabilized by sodium pyrosulfite.
structure (smiles),measurement,setting,value
"Nc1nc(=O)c2c([nH]1)NC[C@H](CNc1ccc(C(=O)N[C@@H](CCC(=O)O)C(=O)O)cc1)N2C=O [calcium levofolinate, (6S)-N-[4-[[(2-amino-5-formyl-1,4,5,6,7,8-hexahydro-4-oxo-6-pteridinyl)methyl]amino]benzoyl]-L-glutamic acid]",remaining ratio (%) of calcium levofolinate,[1]; 0 months,100%
same,remaining ratio (%) of calcium levofolinate,[1]; 0 weeks,100%
same,remaining ratio (%) of calcium levofolinate,[1]; 1 month,101.2%
same,remaining ratio (%) of calcium levofolinate,[1]; 2 months,100.2%
same,remaining ratio (%) of calcium levofolinate,[1]; 4 months,95.7%
same,remaining ratio (%) of calcium levofolinate,[1]; 6 months,92.8%
same,remaining ratio (%) of calcium levofolinate,[1]; 168 h,99.0%
same,remaining ratio (%) of calcium levofolinate,[1]; 336 h,97.5%
same,remaining ratio (%) of calcium levofolinate,[1]; 504 h,95.8%
same,remaining ratio (%) of calcium levofolinate,[1]; 672 h,94.3%
same,remaining calcium levofolinate content compared with the initial value (100),"[2]; pH value 6.0, 1 month",88.7
same,remaining calcium levofolinate content compared with the initial value (100),"[2]; pH value 6.0, 1 week",94.7
same,remaining calcium levofolinate content compared with the initial value (100),"[2]; pH value 6.0, 2 weeks",92.5
same,remaining calcium levofolinate content compared with the initial value (100),"[2]; pH value 6.0, 3 weeks",90.1
same,"calcium levofolinate content, Initial value (100)",[2]; pH value 6.0,100
same,remaining calcium levofolinate content compared with the initial value (100),"[2]; pH value 7.0, 1 month",88.6
same,remaining calcium levofolinate content compared with the initial value (100),"[2]; pH value 7.0, 1 week",94.8
same,remaining calcium levofolinate content compared with the initial value (100),"[2]; pH value 7.0, 2 weeks",92.2
same,remaining calcium levofolinate content compared with the initial value (100),"[2]; pH value 7.0, 3 weeks",90.1
same,"calcium levofolinate content, Initial value (100)",[2]; pH value 7.0,100
same,remaining calcium levofolinate content compared with the initial value (100),"[2]; pH value 7.5, 1 month",84.2
same,remaining calcium levofolinate content compared with the initial value (100),"[2]; pH value 7.5, 1 week",93.4
same,remaining calcium levofolinate content compared with the initial value (100),"[2]; pH value 7.5, 2 weeks",89.0
same,remaining calcium levofolinate content compared with the initial value (100),"[2]; pH value 7.5, 3 weeks",86.8
same,"calcium levofolinate content, Initial value (100)",[2]; pH value 7.5,100
same,remaining calcium levofolinate content compared with the initial value (100),"[2]; pH value 7.9, 1 month",81.9
same,remaining calcium levofolinate content compared with the initial value (100),"[2]; pH value 7.9, 1 week",95.1
same,remaining calcium levofolinate content compared with the initial value (100),"[2]; pH value 7.9, 2 weeks",89.7
same,remaining calcium levofolinate content compared with the initial value (100),"[2]; pH value 7.9, 3 weeks",86.3
same,"calcium levofolinate content, Initial value (100)",[2]; pH value 7.9,100
same,remaining calcium levofolinate content compared with the initial value (100),"[2]; pH value 8.1, 1 week",95.4
same,remaining calcium levofolinate content compared with the initial value (100),"[2]; pH value 8.1, 2 weeks",91.5
same,remaining calcium levofolinate content compared with the initial value (100),"[2]; pH value 8.1, 3 weeks",85.6
same,"calcium levofolinate content, Initial value (100)",[2]; pH value 8.1,100
same,remaining calcium levofolinate content compared with the initial value (100),"[2]; pH value 8.3, 1 week",93.6
same,remaining calcium levofolinate content compared with the initial value (100),"[2]; pH value 8.3, 2 weeks",91.1
same,remaining calcium levofolinate content compared with the initial value (100),"[2]; pH value 8.3, 3 weeks",85.5
same,"calcium levofolinate content, Initial value (100)",[2]; pH value 8.3,100
same,remaining calcium levofolinate content compared with the initial value (100),"[2]; pH value 8.7, 1 week",94.7
same,remaining calcium levofolinate content compared with the initial value (100),"[2]; pH value 8.7, 2 weeks",93.6
same,remaining calcium levofolinate content compared with the initial value (100),"[2]; pH value 8.7, 3 weeks",88.3
same,"calcium levofolinate content, Initial value (100)",[2]; pH value 8.7,100
same,remaining calcium levofolinate content compared with the initial value (100),"[2]; pH value 9.0, 1 week",96.1
same,remaining calcium levofolinate content compared with the initial value (100),"[2]; pH value 9.0, 2 weeks",93.3
same,remaining calcium levofolinate content compared with the initial value (100),"[2]; pH value 9.0, 3 weeks",88.6
same,"calcium levofolinate content, Initial value (100)",[2]; pH value 9.0,100
same,remaining calcium levofolinate content compared with the initial value (100),"[2]; pH value 9.2, 1 week",94.4
same,remaining calcium levofolinate content compared with the initial value (100),"[2]; pH value 9.2, 2 weeks",93.4
same,remaining calcium levofolinate content compared with the initial value (100),"[2]; pH value 9.2, 3 weeks",87.7
same,"calcium levofolinate content, Initial value (100)",[2]; pH value 9.2,100
same,remaining calcium levofolinate content compared with the initial value (100),"[2]; pH value 9.5, 1 week",93.7
same,remaining calcium levofolinate content compared with the initial value (100),"[2]; pH value 9.5, 2 weeks",92.4
same,remaining calcium levofolinate content compared with the initial value (100),"[2]; pH value 9.5, 3 weeks",85.3
same,"calcium levofolinate content, Initial value (100)",[2]; pH value 9.5,100
same,transmittance of the aqueous solution during storage,[3],lowers gradually
